Measured values reported in US6660310B2, “Method to infuse fresh fruits and vegetables with an agent” (American Moxie LLC, priority 2000, dated 2003).
pKd: −log10 of the molar value. Peptide text beside a SMILES is read from it.

Assays:
[1] = tested on: GabaA, Benzodiazepine (Central) Site; experiment: GabaA, Benzodiazepine (Central) Site Binding Assay; design: species or system Bovine
[2] = extracts from Experiment 5; tested only in apple and strawberry
[3] = Taste test: sweetness of materials infused with sweetening agents; conditions: apples, strawberries
Excerpt: Apples, strawberries, carrots and celery were infused with either aspartame or saccharin with standard procedures, as described above, and sweetness was compared with untreated control. […] Clearly an optimal amount of sweetening agent would be lower. The taste test was repeated using a 0.2% concentration of each sweetening agent with the four biological materials.

[4] = Taste test: taste or "heat" of materials infused with capsaicin; conditions: carrots, apples and squash infused with 2% capsaicin
Excerpt: Carrots, apples and squash were infused with 2% capsaicin (the active constituent of cayenne pepper) with standard procedures, as described above, and the taste or “heat” of the infused materials was compared with untreated control materials.

[5] = carrots and celery infused with standard procedures
[6] = carrots and celery, 0.2% concentration of sweetening agent

CN1C(=O)CN=C(c2ccccc2F)c2cc([N+](=O)[O-])ccc21 [Flunitrazepam, flunitrazepam]
specific binding of extract containing the infused agent ([1]; extracts from Experiment 5, tested only in celery and tomato): demonstrated specific binding

C[C@]1(O)CC[C@H]2[C@@H]3CCC4=CC(=O)CCC4=C3C=C[C@@]21C [Methyltrienolone, methyltrienolone]
specific binding of extract containing the infused agent [2]: demonstrated specific binding

CN1C(=O)CN=C(c2ccccc2F)c2cc([N+](=O)[O-])ccc21 [[^3H] Flunitrazepam]
pKd ([1]; assay characteristic of the radioligand, bovine cortical membranes, read-out: KD (binding affinity)): 8.85

COC(=O)[C@H](Cc1ccccc1)NC(=O)[C@@H](N)CC(=O)O [aspartame] (H-Asp-Phe-OMe)
sweetness compared with untreated control [3, 5]: markedly and significantly sweeter | sweetness compared with untreated control [3, 6]: significantly enhanced over the untreated controls

COc1cc(CNC(=O)CCCCC=CC(C)C)ccc1O [capsaicin, 8-methyl-N-vanillyl-6-nonenamide]
taste or "heat" compared with untreated control [4]: markedly and significantly “hotter”

O=C1NS(=O)(=O)c2ccccc21 [saccharin]
sweetness compared with untreated control [3, 5]: markedly and significantly sweeter | sweetness compared with untreated control [3, 6]: significantly enhanced over the untreated controls
